Inhibition data for one compound are collected here from patent US10328113B2, “Method for preventing or treating an allergic disease using extract from illicium verum” (Korea Institute of Oriental Medicine, priority 2012, dated 2019).

One assay has as its system IL-4. In words: IL-4 secretion inhibition, PMA and A23187-stimulated MC/9 mast cells (ELISA). It is filed as cell-based. Conditions: Mus musculus, Mast cell; positive control 10 nM; PMA + A23187, 7 hr; read-out: Inhibition rate of IL-4 (%). Here is the method:
(§1) MC/9 mouse mast cells seeded in a 96-well plate were treated with 20 nM PMA (Phorbol Myristate Acetate) and 0.5 μM or 1 μM calcium ionophore A23187, together with various concentrations of the Illicium verum extract (0, 25, 50, 100, 200 and 400 μg/ml). […] Seven hour later, the secreted amount of cytokines in medium was measured using the ELISA kit (R&D systems Inc., Minneapolis, USA). The 100% activity was calculated with referring to difference of the secreted cytokine amount between the untreated group and the treated group with PMA and A23187.
(§2) The secretion amount was calculated as follows: [1−(the amount of the secreted cytokine in the treated group−the amount of the secreted cytokine in the untreated group)/(the amount of secreted […] in the untreated group]×100.
(§3) The inhibition rate was calculated as follows: [1−(the amount of the secreted cytokine in the treated group−the amount of the secreted cytokine in the untreated group)/(the amount of secreted cytokine in positive control−the amount of the secreted cytokine in the untreated group]×100.
(§4) All data were expressed as mean±standard deviation. Student's t-test was used to examine differences among groups and the data with p<0.05 were considered as statistically significant.

The subject of another assay is IL-8. In words: IL-8 secretion inhibition, PMA and A23187-stimulated MC/9 mast cells (ELISA). Conditions: Mus musculus, Mast cell; positive control 10 nM; PMA + A23187, 7 hr; read-out: Inhibition rate of IL-8 (%). The class given is cell-based. As to the method: as §1, §2, §3, §4
Background: In an ELISA, binding on a coated surface is turned into a signal by an enzyme label.

Usually inhibition stands for the percentage by which the read-out fell short of the control. With `C[C@@H]1C[C@H]2[C@@H]3CCC4=CC(=O)C=C[C@]4(C)[C@@]3(F)[C@@H](O)C[C@]2(C)[C@@]1(O)C(=O)CO` [Dex, dexamethasone], the inhibition at 0.01 µM in the assay on IL-4 worked out at 0.4%; with IL-8, 23%.
